According to ChEMBL document CHEMBL2146462, “Tyrosinase inhibitory activity of a 6-isoprenoid-substituted flavanone isolated from Dalea elegans” (Bioorg Med Chem, 2011):
Activity calls are given as the source filed them. No cut-off for these calls is given here.

Columns and labels:
[1] = molecular target: T1, Tyrosinase (Agaricus bisporus, UniProt O42713)
T1 sequence (O42713 whole entry): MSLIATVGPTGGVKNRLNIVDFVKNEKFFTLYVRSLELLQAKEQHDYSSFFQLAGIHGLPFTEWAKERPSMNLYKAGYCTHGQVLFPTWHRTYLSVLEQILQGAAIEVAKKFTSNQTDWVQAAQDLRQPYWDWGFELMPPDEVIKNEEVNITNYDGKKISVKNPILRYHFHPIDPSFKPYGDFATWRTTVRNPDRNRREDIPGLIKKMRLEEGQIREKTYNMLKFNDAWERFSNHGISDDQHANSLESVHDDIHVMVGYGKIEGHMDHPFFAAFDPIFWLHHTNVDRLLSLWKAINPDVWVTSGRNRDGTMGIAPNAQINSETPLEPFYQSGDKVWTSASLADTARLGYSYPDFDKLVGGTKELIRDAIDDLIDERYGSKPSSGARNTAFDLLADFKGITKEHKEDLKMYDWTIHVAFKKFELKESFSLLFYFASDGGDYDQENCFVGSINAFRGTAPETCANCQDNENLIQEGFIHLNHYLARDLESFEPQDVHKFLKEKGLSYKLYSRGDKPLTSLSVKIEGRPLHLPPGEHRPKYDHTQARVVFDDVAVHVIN

[2] = molecular target: T2, Tyrosinase (Agaricus bisporus) (UniProt O42713); assay: Potency index, ratio IC50 for arbutin to compound against mushroom tyrosinase assessed as inhibition constant for compound-free enzyme using as L-tyrosine substrate by spectrophotometric analysis
T2 sequence (whole entry): T1 sequence (O42713 whole entry)

[3] = molecular target: T1, Tyrosinase; assay: Inhibition of mushroom tyrosinase assessed as inhibition constant for compound-enzyme-substrate complex using as […] substrate by spectrophotometric analysis
[4] = molecular target: T2, Tyrosinase (Agaricus bisporus); assay: Potency index, ratio IC50 for hydroquinone to compound against mushroom tyrosinase using as […] substrate after 10 mins by spectrophotometric analysis
[5] = molecular target: T2, Tyrosinase (Agaricus bisporus); assay: Reversible inhibition of mushroom tyrosinase using L-tyrosine substrate by spectrophotometric analysis
[6] = molecular target: T1, Tyrosinase; assay: Inhibition of mushroom tyrosinase assessed as inhibition constant for compound-enzyme-substrate complex using as L-tyrosine substrate by spectrophotometric analysis
[7] = molecular target: T2, Tyrosinase (Agaricus bisporus); assay: Inhibition of mushroom tyrosinase assessed as reduction in reaction rate of L-tyrosine oxidation by spectrophotometric analysis
[8] = molecular target: T2, Tyrosinase (Agaricus bisporus); assay: Potency index, ratio IC50 for (Z,Z)-5-trideca-4,7-dienyl)-resorcinol to compound against mushroom tyrosinase assessed as inhibition constant for compound-free enzyme using as L-tyrosine substrate by spectrophotometric analysis
[9] = molecular target: T2, Tyrosinase (Agaricus bisporus); assay: Reversible inhibition of mushroom tyrosinase using L-DOPA substrate by spectrophotometric analysis
[10] = molecular target: T2, Tyrosinase (Agaricus bisporus); assay: Noncompetitive inhibition of mushroom tyrosinase using […] substrate by Lineweaver-Burk double reciprocal plot analysis
[11] = Metal chelating activity of the compound assessed as formation of copper complex at 84.66 uM after 1 min by UV-vis spectroscopy; type: functional
[12] = molecular target: T2, Tyrosinase (Agaricus bisporus); assay: Competitive inhibition of mushroom tyrosinase using L-tyrosine substrate by Lineweaver-Burk double reciprocal plot analysis
[13] = molecular target: T1, Tyrosinase; remark: listed apart in the source
Description: Inhibition of mushroom tyrosinase using as L-tyrosine substrate after 10 mins by spectrophotometric analysis

[14] = molecular target: T1, Tyrosinase; assay: Inhibition of mushroom tyrosinase assessed as inhibition constant for compound-free enzyme using as L-tyrosine substrate by spectrophotometric analysis
[15] = molecular target: T2, Tyrosinase (Agaricus bisporus); assay: Potency index, ratio IC50 for hydroquinone to compound against mushroom tyrosinase using as L-tyrosine substrate after 10 mins by spectrophotometric analysis
[16] = molecular target: T1, Tyrosinase; remark: listed apart in the source
Description: Inhibition of mushroom tyrosinase using as L-DOPA substrate after 2 mins by spectrophotometric analysis

[17] = molecular target: T2, Tyrosinase (Agaricus bisporus); assay: Potency index, ratio Ki for kojic acid to compound against mushroom tyrosinase assessed as inhibition constant for compound-free enzyme using as L-tyrosine substrate by spectrophotometric analysis
[18] = molecular target: T2, Tyrosinase (Agaricus bisporus); assay: Potency index, ratio IC50 for ascorbic acid to compound against mushroom tyrosinase assessed as inhibition constant for compound-free enzyme using as L-tyrosine substrate by spectrophotometric analysis
[19] = molecular target: T2, Tyrosinase (Agaricus bisporus); assay: Inhibition of mushroom tyrosinase assessed as lag time for L-tyrosine oxidation at 5.51 uM by spectrophotometric analysis
[20] = molecular target: T2, Tyrosinase (Agaricus bisporus); assay: Potency index, ratio Ki for kojic acid to compound against mushroom tyrosinase diphenolase activity
[21] = molecular target: T2, Tyrosinase (Agaricus bisporus); assay: Potency index, ratio IC50 for kojic acid to compound against mushroom tyrosinase using as L-tyrosine substrate after 10 mins by spectrophotometric analysis
[22] = molecular target: T1, Tyrosinase; assay: Inhibition of mushroom tyrosinase assessed as inhibition constant for compound-free enzyme using as […] substrate by spectrophotometric analysis
[23] = molecular target: T2, Tyrosinase (Agaricus bisporus); assay: […] mixed-I type inhibition of mushroom tyrosinase using L-tyrosine substrate by Lineweaver-Burk double reciprocal plot analysis

O=S([O-])O.[Na+] [SODIUM BISULFITE]
IC50 [1]: 210 µM

CC1(C)C=Cc2c(cc3c(c2O)C(=O)CC(c2ccc(O)cc2O)O3)O1 (centres undefined) [DALENIN]
Ratio IC50 [2]: 285
Ki [3]: 160 µM
Ratio IC50 [4]: 59
inhibition [5]: Active
Ki [6]: 7.6 µM
inhibition [7]: Active
Ratio IC50 [8]: 3
inhibition [9]: Active
inhibition [10]: Active
Activity [11]: Active
inhibition [12]: Active
IC50 [13]: 0.26 µM
Ki [14]: 1.98 µM
Ratio IC50 [15]: 52
IC50 [16]: 18.6 µM
Ratio Ki [17]: 15
Ratio IC50 [18]: 7
TIME [19]: 0.167 h
Ratio Ki [20]: 8
Ratio IC50 [21]: 495
Ki [22]: 160 µM
inhibition [23]: Active

CCCCC/C=C\C/C=C\CCCc1cc(O)cc(O)c1
IC50 [16]: 51.9 µM
IC50 [1]: 1.7 µM

Oc1ccc(O)cc1 [HYDROQUINONE]
IC50 [13]: 13.5 µM
IC50 [16]: 1090 µM

O=C1CC(c2ccc(O)cc2O)Oc2cc(O)cc(O)c21 (centres undefined) [STEPPOGENIN]
IC50 [13]: 1.3 µM
IC50 [16]: 26.5 µM
